# Data: patent publication US10221439B2, “Sensors, methods and kits for detecting nicotinamide adenine dinucleotides” (Max-Planck-Gesellschaft zur Förderung der Wissenschaften …, priority 2015, dated 2019)
# Entries after “also recorded” stand apart in the source; their conditions may differ.
# What was measured:
# [1] = system: U2OS cells; test: Live cells perfusion experiment with sensor expressed in the cytosol; type: cell-based; details: for sensor response (ratio TMR/SiR, NADPH/NADP^+): 100 μM perfused on U2OS cells
# Procedure: Semi-stable U2OS (SPR-Halo-p30-SNAP cloned in a pEBTet vector; see Bach et al. FEBS J. 2007 Feb.; 274(3):783-90 for the description of pEBTet) freshly trypsinated are diluted 5-fold with DMEM GlutaMax+10% FBS and 1 μg/mL puromycin. They are plated (2 mL) in previously sterilized and poly-L-ornithine coated (1 h incubation) glass coverslips (20×20 mm, VWR) in 12-well plate (TPP). On day 2, the expression is induced by 100 ng/mL doxycycline for ˜24 h. […] On day 4, the cells are washed 3 times with DMEM GlutaMax+10% FBS without phenol red (10 min incubation, 37° C., 5% CO2 between each step). After 30 min of incubation, the cells are ready for imaging. Glass coverslips with labelled U2OS cells were transferred to a Cytoo chamber (44×34×10 mm). Gravity fed perfusion of the chamber was performed at a flow rate of 1 mL/min. Time-course experiments of sensor imaging were performed using a Leica LAS AF 7000 wide-field microscope equipped with a 63× plan Apochromat 1.40 NA oil immersion objective lens. A xenon arc lamp was used for imaging of the U2OS cells. For each frame, the two channels (donor and FRET) were measured consecutively with an interval of 10 s between the two emission channels. The filter set Cy3/Cy5 was used for FRET ratio imaging with excitation at 530/35 and emission at 580/40 (Cy3) as well as excitation at 635/30 and emission at 700/72 (Cy5). If not indicated otherwise, the image size was […]. The reagent perfused during the experiment (H2O2, SPY) were dissolved in HBSS (Lonza). HBSS solution was continuously perfused during the other time point of the experiment.
# [2] = target: Wild-type human SPR (Homo sapiens, UniProt P35270); details: cited from earlier work
# Wild-type human SPR, sequence (P35270 whole entry): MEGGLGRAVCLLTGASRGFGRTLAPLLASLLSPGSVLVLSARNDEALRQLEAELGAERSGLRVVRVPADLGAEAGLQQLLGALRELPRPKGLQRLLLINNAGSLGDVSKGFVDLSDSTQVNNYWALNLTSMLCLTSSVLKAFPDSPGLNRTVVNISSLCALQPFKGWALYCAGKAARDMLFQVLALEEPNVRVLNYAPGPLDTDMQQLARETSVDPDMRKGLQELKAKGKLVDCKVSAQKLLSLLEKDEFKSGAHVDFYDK
# [3] = cited from earlier work
compound,measurement,setting,value
"OO [H2O2, hydrogen peroxide]","sensor response (ratio TMR/SiR, NADPH/NADP^+)",[1],decreased NADPH/NADP^+ ratio
same,"sensor response (ratio TMR/SiR, NADPH/NADP^+)",[1]; listed as hydrogen peroxide,sharp decrease of the ratio
nicotinamide adenine dinucleotide phosphate [NADPH],Kd,[2],1 µM
nicotinamide adenine dinucleotide phosphate [NADP^+],Kd,[2],10 µM
Nc1ccc(S(=O)(=O)Nc2ccccn2)cc1 [sulfapyridine],sensor response (ratio TMR/SiR),[1]; 2 mM perfused on U2OS cells,increased ratio TMR/SiR; also recorded: fully open the sensor
same,pKa of the sulfonamide proton,[3],8.4
